The values below are quoted from earlier work in patent US20050267009A1, “Method of Treatment of Acute and Persistent Pain” (priority 2004, published 2005).

Where two headings read alike, the source gives them in different places.

Data set [1] deals with glia and proinflammatory cytokines. As to conditions: intrathecal.
The subject of a further data set is nerve root injury. The note with it: topical application of disk tissue (nucleus pulposus).
The subject of a further data set is trigeminal nerve fibers. As to conditions: dura mater.
For the next data set, the system named is NOS-2. The note with it: macrophages and astroglial cells, decreased NOS-2 activity and protein.
Another data set relates to interleukin-10. The note with it: prolonged administration.
The next data set concerns the target T1, spinal VR1 receptors (Rattus norvegicus, UniProt O35433).
T1 construct: VR1 receptors, present on Adelta- and C-fibres and post-synaptic sites within the spinal cord dorsal horn; endogenous in cells; host or cells: rat spinal cord, in vivo electrophysiology
As to conditions: spinal 0.5-30 microM; greater extent in sham operated than SNL rats.

The next data set deals with COX. The note with it: 5 and 7 days after injection.
A further data set has as its system prostaglandin E2 (PGE2). As to conditions: 10 days after CCI, treatment started 12 hours after surgery.
Data set [2] concerns spinal neuronal responses.
The subject of the next data set is nociceptors. As to conditions: rat skin in vitro; for sensitization of the heat-evoked CGRP release: applied alone; for EC(50) of heat sensitization of CGRP release: heat-evoked CGRP release.
The test system of data set [3] is spinal cord nociceptive transmission. The note with it: for wind-up activity: normal rats.
For data set [4] the following is noted: human, in vivo.
The conditions of data set [5]: in vivo.
[6] abbreviates: systemic HU210 60 microg/kg, sham-operated rats.

T1 sequence (O35433 whole entry): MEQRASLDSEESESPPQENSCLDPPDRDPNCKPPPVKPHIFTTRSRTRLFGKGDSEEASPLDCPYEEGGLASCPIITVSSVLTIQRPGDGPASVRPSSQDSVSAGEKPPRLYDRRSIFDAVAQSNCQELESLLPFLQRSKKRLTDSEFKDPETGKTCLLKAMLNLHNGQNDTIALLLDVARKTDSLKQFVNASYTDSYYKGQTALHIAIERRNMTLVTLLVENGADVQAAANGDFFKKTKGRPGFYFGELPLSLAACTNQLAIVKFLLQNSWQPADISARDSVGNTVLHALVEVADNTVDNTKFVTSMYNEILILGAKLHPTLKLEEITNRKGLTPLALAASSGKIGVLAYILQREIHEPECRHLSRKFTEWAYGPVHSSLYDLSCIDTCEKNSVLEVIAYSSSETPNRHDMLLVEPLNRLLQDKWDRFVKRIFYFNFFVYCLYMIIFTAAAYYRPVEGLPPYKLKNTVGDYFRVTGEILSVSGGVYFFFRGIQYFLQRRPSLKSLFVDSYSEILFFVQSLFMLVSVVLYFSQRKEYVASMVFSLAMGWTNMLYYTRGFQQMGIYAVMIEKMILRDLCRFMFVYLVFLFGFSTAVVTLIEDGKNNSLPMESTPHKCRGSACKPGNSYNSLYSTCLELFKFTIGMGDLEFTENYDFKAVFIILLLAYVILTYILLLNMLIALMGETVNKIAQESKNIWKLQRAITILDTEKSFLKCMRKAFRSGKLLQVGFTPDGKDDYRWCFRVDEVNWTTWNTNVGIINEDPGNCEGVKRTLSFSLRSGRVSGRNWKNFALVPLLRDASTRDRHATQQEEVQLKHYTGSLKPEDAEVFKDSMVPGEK

With `N=C(N)NC(=O)c1nc(Cl)c(N)nc1N` [Amiloride], the “blockade of ASICs” value with ASICs was “not potent and not selective”.

Regarding `C/C(=N\N=C(N)N)c1cc(NC(=O)CCCCCCCCC(=O)Nc2cc(/C(C)=N/N=C(N)N)cc(/C(C)=N/N=C(N)N)c2)cc(/C(C)=N/N=C(N)N)c1.Cl.Cl.Cl.Cl` [CNI-1493], the “ipsilateral and mirror-image SIN-induced allodynias” value in data set [1] was “prevented and reversed”.

For the molecule `CCCCCCC(C)(C)c1cc(O)c2c(c1)OC(C)(C)[C@@H]1CC=C(CO)C[C@@H]21` [HU210], the “C-fibre mediated post-discharge response of spinal neurones” value in the data set on spinal neurones (spinal administration 0.5-500 ng/50 microl, sham operated rats) is recorded as “significantly reduced”. Further, in the data set with spinal neurones (spinal administration, both sham operated and nerve injured rats), the “Adelta-fibre evoked responses of spinal neurones” value is “significantly reduced”. Moreover, in the data set with spinal neurones (setting [6]), the Adelta-fibre evoked responses is given as 48+/−5 % of control, the “overall C-fibre evoked response” value is reported as 54+/−8 % of control and the post-discharge response was 28+/−12 % of control. The “C- or Abeta-fibre evoked responses of spinal neurones” value with spinal neurones (systemic administration, nerve injured rats) is “did not significantly reduce”.

As to `[Cl-].[Cl-].[Mn+2].c1cc2nc(c1)CN[C@@H]1CCCC[C@H]1NCCN[C@@H]1CCCC[C@H]1NC2` [M40403], the “anti-hyperalgesic effects with naloxone” value in the data set on superoxide was “not reversed”.

For `CC(=O)CCCCn1c(=O)c2c(ncn2C)n(C)c1=O` [Pentoxifylline], the “nerve root injury and swelling (dorsal root ganglion compartment syndrome)” value in the data set with nerve root injury is recorded as “prevented”.

With `CNS(=O)(=O)Cc1ccc2[nH]cc(CCN(C)C)c2c1` [Sumatriptan], in the data set on trigeminal nerve fibers, the “nerve fiber induced plasma extravasation” value is “blocks”; the “nerve fiber mediated vasodilatation and dural arterial flow” value is listed as “only minor effects”.

`N=C(N)NCCCCN` [agmatine]: the “production of nitric oxide” value with NOS-2 was “inhibits”.

With `CN(C)CCC=C1c2ccccc2CCc2ccccc21` [amitriptyline], the “secretion of the anti-inflammatory cytokine interleukin-10” value with interleukin-10 is reported as “significant increase”.

On to `Oc1cc2c(cc1O)CN(C(=S)NCCc1ccc(Cl)cc1)CCC2` [capsazepine], for which the “noxious evoked responses of spinal neurones” value on spinal VR1 receptors is recorded as “reduced”.

`CNCCCN1c2ccccc2CCc2ccccc21` [desipramine]: in the data set with interleukin-10, the “secretion of the anti-inflammatory cytokine interleukin-10” value is reported as “significant increase”.

Regarding `O=C(O)CC(O)(C(=O)O)C(F)C(=O)O` (stereo not shown) [fluorocitrate], the “ipsilateral and mirror-image SIN-induced allodynias” value in data set [1] is “reversed”.

With `CC(C)Cc1ccc(C(C)C(=O)O)cc1` (stereo not shown) [ibuprofen], the “mechanical allodynia induced by intraneural TNF” value with COX is reported as “reduced”. Further, the “PGE2 levels in injured nerves and DRG” value in the data set with prostaglandin E2 (PGE2) is “reversed”.

As to `CCCn1cnc2c1c(=O)n(CCCCC(C)=O)c(=O)n2C` [propentofylline], in the data set on glial activation (following peripheral nerve injury), the “glial activation and enhanced spinal proinflammatory cytokines” value is “inhibit”. The “analgesic activity of morphine” value in the data set with glial activation (propentofylline treatment, neuropathic pain) is given as “restoration”.

In the case of `O=C1CCC(N2C(=O)c3ccccc3C2=O)C(=O)N1` (stereo not shown) [thalidomide], in the data set on TNF-alpha (CCI), the “epineurial IL-10 immunoreactive macrophages and recovery of endoneurial IL-10-IR” value is listed as “enhanced”; the “thermal hyperalgesia and mechanical allodynia” value was “reduces”. Moreover, the “endoneurial IL-1 beta-immunoreactivity and IL-6-IR” value in the data set on TNF-alpha (CCI, lesioned rat sciatic nerve) is listed as “not altered”. The “increase of endoneurial TNF-alpha” value in the data set with TNF-alpha (first week after CCI, immunohistochemistry and ELISA) is recorded as “reduced”. Also, in the data set on TNF-alpha (operated animals), the “decrease in CGRP-IR and SP-IR in the dorsal horn” value is listed as “not influenced”; the “increase in met-enkephalin in the dorsal horn” value is given as “further enhanced”.

Regarding IL-6: cytokine interleukin-6, the “electrically evoked C-fibre, initial C-fibre, post discharge and wind-up” value in data set [2] (following neuropathy, spinal) is on record as “dose-related inhibition”. Besides, in [2] (naive rats, spinal 100-500 ng), the “electrically evoked neuronal responses” value is “no significant effect”. In [2] (neuropathic rats, spinal), the mechanical neuronal responses entry is “markedly inhibited”. For the same molecule, in the data set with nociceptors, the “sensitization of the heat-evoked CGRP release” value was “did not induce heat sensitization”.

Regarding IL-8: cytokine interleukin-8, in the data set on nociceptors, the “sensitization of the heat-evoked CGRP release” value is “not”.

For TNF-alpha, in the data set on nociceptors, the “maximum effect on heat-evoked CGRP release” value is 350% and the “EC(50) of heat sensitization of CGRP release” value is 3.1 ng/mL.

B1: IL-10: natural anti-inflammatory cytokine (protein, UniProt P29456 19-178, looked up)
Interleukin-10: SKGHSIRGDNNCTHFPVSQTHMLRELRAAFSQVKTFFQKKDQLDNILLTDSLLQDFKGYLGCQALSEMIKFYLVEVMPQAENHGPEIKEHLNSLGEKLKTLWIQLRRCHRFLPCENKSKAVEQVKNDFNKLQDKGVYKAMNEFDIFINCIEAYVTLKMKN
For B1, in the data set with spinal cord injury (rats with SCI), the “inflammatory mediator TNF-alpha after SCI” value is recorded as “decrease”. For the same molecule, in the data set with spinal cord injury (single injection within half an hour of SCI), the “less spinal cord tissue loss than in untreated rats” value was 49%.

B2: IL-1 beta: proinflammatory cytokine interleukin-1 beta (protein, UniProt Q63264 117-268, looked up)
Interleukin-1 beta: VPIRQLHCRLRDEQQKCLVLSDPCELKALHLNGQNISQQVVFSMSFVQGETSNDKIPVALGLKGLNLYLSCVMKDGTPTLQLESVDPKQYPKKKMEKRFVFNKIEVKTKVEFESAQFPNWYISTSQAEHRPVFLGNSNGRDIVDFTMEPVSS
For B2, the wind-up scores entry in data set [3] (monoarthritic rats, any dose) was “did not significantly change”. Besides, the wind-up activity result in data set [3] (higher doses (8.0 ng)) is given as “marginal insignificant effect”; in [3] (low i.t. doses 0.03-2.0 ng) it was “dose-dependently enhanced”. Moreover, in the data set with nociceptors, the “maximum effect on heat-evoked CGRP release” value is recorded as roughly 600%. In addition, the “EC(50) of heat sensitization of CGRP release” value with nociceptors was 2.7 ng/mL.

B3: nerve growth factor: prototypic member of the neurotrophin family (protein, UniProt P25427 122-241, looked up)
Beta-nerve growth factor: SSTHPVFHMGEFSVCDSVSVWVGDKTTATDIKGKEVTVLGEVNINNSVFKQYFFETKCRAPNPVESGCRGIDSKHWNSYCTTTHTFVKALTTDDKQAAWRFIRIDTACVCVLSRKAARRG
For the molecule B3, in [4], the adverse event result is given as “induction of pain has been the major adverse event”. Moreover, the hyperalgesia result in data set [5] is “rapid onset of hyperalgesia”.
